Assay results as given in ChEMBL document CHEMBL1129641 (J Med Chem, 1996).

Legend:
[1] = target: T1, Thromboxane A2 receptor (Homo sapiens) (UniProt P21731); assay: Binding affinity for human Platelet Thromboxane A2 / Prostaglandin (TP), by radioligand competition binding assays using [3H]-SQ 29548 as radioligand. PR = potency ratio relative to TMQ
T1 sequence (whole entry): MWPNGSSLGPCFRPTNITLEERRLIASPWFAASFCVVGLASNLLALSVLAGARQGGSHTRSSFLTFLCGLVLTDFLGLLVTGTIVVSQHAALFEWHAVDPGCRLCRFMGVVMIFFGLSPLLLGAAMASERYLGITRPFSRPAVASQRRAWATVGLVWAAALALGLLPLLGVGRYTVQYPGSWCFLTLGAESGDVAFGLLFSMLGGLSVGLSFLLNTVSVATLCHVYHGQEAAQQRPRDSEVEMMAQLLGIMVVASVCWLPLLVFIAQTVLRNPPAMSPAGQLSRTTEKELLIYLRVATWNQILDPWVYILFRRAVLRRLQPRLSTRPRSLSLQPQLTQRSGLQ

[2] = target: T2, Beta-2 adrenergic receptor (Homo sapiens, UniProt P07550); details: CHO
Target sequence in this assay (P07550 whole entry, looked up): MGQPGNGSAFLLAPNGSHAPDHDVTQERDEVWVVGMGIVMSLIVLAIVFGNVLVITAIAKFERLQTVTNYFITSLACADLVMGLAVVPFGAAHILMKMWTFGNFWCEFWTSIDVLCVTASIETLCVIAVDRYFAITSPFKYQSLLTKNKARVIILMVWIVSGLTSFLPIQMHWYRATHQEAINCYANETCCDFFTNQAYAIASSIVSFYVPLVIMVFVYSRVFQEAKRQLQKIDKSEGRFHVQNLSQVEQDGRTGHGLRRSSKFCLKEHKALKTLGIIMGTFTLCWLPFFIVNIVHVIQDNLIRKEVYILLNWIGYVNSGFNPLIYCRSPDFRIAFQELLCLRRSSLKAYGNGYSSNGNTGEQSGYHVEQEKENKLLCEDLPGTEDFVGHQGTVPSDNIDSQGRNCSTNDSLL
Description: Binding affinity for human beta-2 Adrenoceptor (AR) expressed in CHO cells by radioligand competition binding assays using [125I]-iodocyanopindolol (ICYP); PR = potency ratio relative to TMQ

[3] = target: T2, Beta-2 adrenergic receptor; assay: Binding affinity for human Beta-2 adrenergic receptor expressed in CHO cells by radioligand competition binding assays using [125I]iodocyanopindolol (ICYP); format: cell-based
Target sequence in this assay (P07550 whole entry): as the sequence (P07550 whole entry, looked up) above

Thromboxane A2 receptor = target: T3, Thromboxane A2 receptor (Homo sapiens, UniProt P21731); assay: Binding affinity for human Platelet Thromboxane A2 / Prostaglandin (TP), by radioligand competition binding assays using [3H]-SQ 29548 as radioligand
T3 sequence (P21731 whole entry): T1 sequence (whole entry)

`Oc1cc2c(cc1O)C(Cc1cc(C(F)(F)F)cc(C(F)(F)F)c1)NCC2` (stereo not drawn) gave a PR [1] of 0.002 and a PR [2] of 0.01.
Compound `Nc1ccc(CC2NCCc3cc(O)c(O)cc32)cc1I` (stereo not drawn) has a Ki [3] of 6.46 nM, a Ki (Thromboxane A2 receptor) of 1000 nM and a PR [1] of 0.16. For the same compound, the PR [2] was 6.8.
For `COc1c(I)cc(CC2NCCc3cc(O)c(O)cc32)cc1I` (stereo not drawn), the PR [1] was 3.5 and the PR [2] was 21.
In the case of `O=C(Nc1ccc(CC2NCCc3cc(O)c(O)cc32)cc1I)c1ccccc1` (stereo not drawn), the PR [1] is reported as 0.03 and the PR [2] is reported as 22.
Compound `Nc1c(I)cc(CC2NCCc3cc(O)c(O)cc32)cc1I` (stereo not drawn) has a PR [1] of 0.87 and a PR [2] of 28.
Compound `Oc1cc2c(cc1O)C(Cc1cc(I)c(I)c(I)c1)NCC2` (stereo not drawn) has a PR [1] of 0.003 and a PR [2] of 29.
`CC(=O)Nc1ccc(CC2NCCc3cc(O)c(O)cc32)cc1I` (stereo not drawn) showed a PR [1] of 0.11 and a PR [2] of 5.6.
With `COc1cc(C[C@@H]2NCCc3cc(O)c(O)cc32)cc(OC)c1OC` the PR [1] was 1 and the PR [2] was 1.
